Biological target: coffee bean alpha-galactosidase (Coffea arabica) (UniProt Q42656)
Assay: Inhibitory activity measured against alpha-galactosidase of coffee bean by colorimetric assay using the p-nitrophenyl glycoside method

coffee bean alpha-galactosidase (Coffea arabica), sequence (Q42656 whole entry, looked up): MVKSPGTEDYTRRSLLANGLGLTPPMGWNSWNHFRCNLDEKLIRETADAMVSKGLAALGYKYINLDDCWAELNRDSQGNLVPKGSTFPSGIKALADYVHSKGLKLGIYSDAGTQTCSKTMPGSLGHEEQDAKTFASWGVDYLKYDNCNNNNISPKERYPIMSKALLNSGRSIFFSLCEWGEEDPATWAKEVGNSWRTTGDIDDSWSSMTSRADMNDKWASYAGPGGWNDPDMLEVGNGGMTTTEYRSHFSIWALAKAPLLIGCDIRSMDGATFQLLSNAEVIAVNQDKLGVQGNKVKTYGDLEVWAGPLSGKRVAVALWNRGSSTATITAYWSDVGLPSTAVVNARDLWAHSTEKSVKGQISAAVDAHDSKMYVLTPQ

Compound	IC50
OCC1NC(CO)[C@@H](O)C(O)C1O (stereo partly drawn) [(R)-2,6-Bis-hydroxymethyl-piperidine-3,4,5-triol]	6.4 µM
OC[C@H]1N[C@H](CO)[C@H](O)C(O)[C@H]1O (some centres not stated)	80 µM
